Results: PubChem BioAssay AID330 (DTP/NCI, 2004)
Several values for one entry are separate records, joined by “and”; a condition that tells them apart may be missing. Equal entries are not always repeated. Toxic doses and inconclusive results are not listed.

Test system: P388 leukemia ip, CD2F1 mice, survival T/C
Assay: NCI In Vivo Anticancer Drug Screen. Data for tumor model P388 Leukemia (intraperitoneal) in CD2F1 (CDF1) mice
Conditions: endpoint: median survival time, higher = longer survival
Procedure, shortened: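 Mice carrying the transplanted tumor received test compound or vehicle. Survival was recorded in each group, and the value is the treated-group measurement divided by that of the vehicle-treated control group.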

[1] = dose: 6.25 mg/kg/injection, schedule: Q01DX009 (ip), vehicle: other
[2] = dose: 12.5 mg/kg/injection, schedule: Q01DX009 (ip), vehicle: other
[3] = dose: 25.0 mg/kg/injection, schedule: Q01DX009 (ip), vehicle: other
[4] = dose: 100.0 mg/kg/injection, schedule: Q01DX009 (ip), vehicle: saline with Tween-80
[5] = dose: 50.0 mg/kg/injection, schedule: Q01DX005 (ip), vehicle: saline
[6] = dose: 100.0 mg/kg/injection, schedule: Q01DX005 (ip), vehicle: saline
[7] = dose: 200.0 mg/kg/injection, schedule: Q01DX005 (ip), vehicle: saline
[8] = dose: 12.5 mg/kg/injection, schedule: Q01DX009 (ip), vehicle: saline with Tween-80
[9] = dose: 50.0 mg/kg/injection, schedule: Q01DX009 (ip), vehicle: Klucel (hydroxypropylcellulose) (HPC)
[10] = dose: 100.0 mg/kg/injection, schedule: Q01DX009 (ip), vehicle: Klucel (hydroxypropylcellulose) (HPC)
[11] = dose: 200.0 mg/kg/injection, schedule: Q01DX009 (ip), vehicle: Klucel (hydroxypropylcellulose) (HPC)
[12] = dose: 50.0 mg/kg/injection, schedule: Q01DX009 (ip), vehicle: saline

Q: Which T/C (dose: 1.56 mg/kg/injection, schedule: Q01DX009 (ip), vehicle: other) does the source give for `COC1CC(=O)C2OC(c3ccccc3)OCC2O1` (stereo unspecified) here?
A: 88 % of control

Q: And the T/C (dose: 3.13 mg/kg/injection, schedule: Q01DX009 (ip), vehicle: other)?
A: 94 % of control

Q: And the T/C [1]?
A: 106 % of control

Q: What about the T/C [2] of the same molecule?
A: 96 % of control

Q: What about the T/C [3] of the same molecule?
A: 100 % of control and 97 % of control

Q: What about the T/C (dose: 50.0 mg/kg/injection, schedule: Q01DX009 (ip), vehicle: other) of the same molecule?
A: 99 % of control

Q: What about the T/C (dose: 100.0 mg/kg/injection, schedule: Q01DX009 (ip), vehicle: other) of the same molecule?
A: 92 % of control

Q: What about the T/C (dose: 200.0 mg/kg/injection, schedule: Q01DX009 (ip), vehicle: other) of the same molecule?
A: 87 % of control

Q: And the T/C (dose: 400.0 mg/kg/injection, schedule: Q01DX009 (ip), vehicle: other)?
A: 98 % of control

Q: For `CNC(=O)Oc1ccc(/C=N/Sc2cccc([N+](=O)[O-])c2)cc1`, which T/C (dose: 50.0 mg/kg/injection, schedule: Q01DX009 (ip), vehicle: saline with Tween-80) is on record?
A: 101 % of control

Q: What about the T/C [4] of the same molecule?
A: 89 % of control

Q: How did the T/C [5] turn out when `CNC(=O)Oc1cc(C)c[n+]([O-])c1` was run?
A: 100 % of control

Q: What about the T/C [6] of the same molecule?
A: 104 % of control

Q: What about the T/C [7] of the same molecule?
A: 104 % of control

Q: For `Cc1ccc2ccccc2c1NS(=O)(=O)c1ccccc1`, which T/C (dose: 100.0 mg/kg/injection, schedule: Q01DX001 (ip), vehicle: saline with Tween-80) is on record?
A: 95 % of control

Q: And the T/C (dose: 200.0 mg/kg/injection, schedule: Q01DX001 (ip), vehicle: saline with Tween-80)?
A: 95 % of control

Q: And the T/C (dose: 400.0 mg/kg/injection, schedule: Q01DX001 (ip), vehicle: saline with Tween-80)?
A: 91 % of control

Q: Which T/C (dose: 0.78 mg/kg/injection, schedule: Q01DX009 (ip), vehicle: saline with Tween-80) does the source give for `CC1(C)CC([P+](c2ccccc2)(c2ccccc2)c2ccccc2)=NN1` here?
A: 115 % of control and 119 % of control

Q: And the T/C (dose: 12.5 mg/kg/injection, schedule: Q01DX001 (ip), vehicle: saline)?
A: 123 % of control

Q: What about the T/C [8] of the same molecule?
A: 100 % of control

Q: What about the T/C (dose: 25.0 mg/kg/injection, schedule: Q01DX001 (ip), vehicle: saline) of the same molecule?
A: 122 % of control

Q: Which T/C (dose: 50.0 mg/kg/injection, schedule: Q01DX009 (ip), vehicle: saline sonified) does the source give for `CCN(CC)C(=O)c1cccc(COc2ccc(N3C(N)=NC(N)=NC3(C)C)cc2Cl)c1` here?
A: 90 % of control

Q: What about the T/C (dose: 50.0 mg/kg/injection, schedule: Q04DX003 (ip), vehicle: saline sonified) of the same molecule?
A: 109 % of control

Q: What about the T/C (dose: 100.0 mg/kg/injection, schedule: Q01DX009 (ip), vehicle: saline sonified) of the same molecule?
A: 109 % of control

Q: And the T/C (dose: 100.0 mg/kg/injection, schedule: Q04DX003 (ip), vehicle: saline sonified)?
A: 100 % of control

Q: With `CCN(CC)c1ccc(N=C(NC#N)SC)cc1` as the molecule, how does the T/C [9] read?
A: 104 % of control

Q: What about the T/C [10] of the same molecule?
A: 103 % of control

Q: And the T/C [11]?
A: 106 % of control

Q: Which results are given for `CC(=O)[O][Hg][CH2]C1Cc2ccccc2O1` (stereo unspecified)?
A: T/C (dose: 2.5 mg/kg/injection, schedule: Q01DX009 (ip), vehicle: saline): 98 % of control; T/C (dose: 5.0 mg/kg/injection, schedule: Q01DX009 (ip), vehicle: saline): 99 % of control; T/C (dose: 10.0 mg/kg/injection, schedule: Q01DX009 (ip), vehicle: saline): 99 % of control; T/C (dose: 20.0 mg/kg/injection, schedule: Q01DX009 (ip), vehicle: saline): 100 % of control

Q: What does the source list for `CC1=CC2(C)OC(=O)N(c3ccccc3)C2N=C1` (stereo unspecified)?
A: T/C [9]: 111 % of control; T/C [10]: 109 % of control

Q: `CC[CH2][Sn]([CH2]CC)([O]C(C)=O)[c]1ccccc1` was tested. Which T/C (dose: 1.56 mg/kg/injection, schedule: Q01DX009 (ip), vehicle: saline) did it give?
A: 90 % of control

Q: And the T/C (dose: 3.12 mg/kg/injection, schedule: Q01DX009 (ip), vehicle: saline)?
A: 86 % of control

Q: What about the T/C (dose: 6.25 mg/kg/injection, schedule: Q01DX009 (ip), vehicle: saline) of the same molecule?
A: 87 % of control

Q: And the T/C [12]?
A: 113 % of control

Q: `CCCCN=[N+]=[N-]` was tested. Which T/C (dose: 12.5 mg/kg/injection, schedule: Q01DX009 (ip), vehicle: water) did it give?
A: 91 % of control

Q: And the T/C (dose: 25.0 mg/kg/injection, schedule: Q01DX009 (ip), vehicle: water)?
A: 98 % of control

Q: What about the T/C (dose: 50.0 mg/kg/injection, schedule: Q01DX009 (ip), vehicle: water) of the same molecule?
A: 98 % of control

Q: What about the T/C (dose: 100.0 mg/kg/injection, schedule: Q01DX009 (ip), vehicle: water) of the same molecule?
A: 100 % of control

Q: And the T/C (dose: 200.0 mg/kg/injection, schedule: Q01DX009 (ip), vehicle: water)?
A: 96 % of control

Q: With `Cc1cc(Cl)nn2cc(CC(=O)O)nc12` as the molecule, how does the T/C (dose: 100.0 mg/kg/injection, schedule: Q01DX001 (ip), vehicle: Klucel (hydroxypropylcellulose) (HPC)) read?
A: 100 % of control

Q: What about the T/C (dose: 200.0 mg/kg/injection, schedule: Q01DX001 (ip), vehicle: Klucel (hydroxypropylcellulose) (HPC)) of the same molecule?
A: 104 % of control

Q: What about the T/C (dose: 400.0 mg/kg/injection, schedule: Q01DX001 (ip), vehicle: Klucel (hydroxypropylcellulose) (HPC)) of the same molecule?
A: 98 % of control

Q: Which results are given for `CC1OC(=O)/C(=C\N(C)C)C1=O` (stereo unspecified)?
A: T/C (dose: 50.0 mg/kg/injection, schedule: Q01DX005 (ip), vehicle: Klucel (hydroxypropylcellulose) (HPC)): 105 % of control; T/C (dose: 100.0 mg/kg/injection, schedule: Q01DX005 (ip), vehicle: Klucel (hydroxypropylcellulose) (HPC)): 111 % of control; T/C (dose: 200.0 mg/kg/injection, schedule: Q01DX005 (ip), vehicle: Klucel (hydroxypropylcellulose) (HPC)): 109 % of control

Q: Which T/C [1] does the source give for `COC1CC(C)(O)Cc2cc3c(c(O)c21)C(=O)c1c(O)cc2c(c1C3=O)OC1OC2(C)C(O)C(N(C)C)C1O` (stereo unspecified) here?
A: 158 % of control

Q: And the T/C [2]?
A: 176 % of control

Q: What about the T/C [3] of the same molecule?
A: 168 % of control

Q: How did the T/C [4] turn out when `O=C(C1=CCCCC1)c1ccc(-c2ccccc2)cc1` was run?
A: 100 % of control

Q: And the T/C (dose: 200.0 mg/kg/injection, schedule: Q01DX009 (ip), vehicle: saline with Tween-80)?
A: 100 % of control

Q: What about the T/C (dose: 400.0 mg/kg/injection, schedule: Q01DX009 (ip), vehicle: saline with Tween-80) of the same molecule?
A: 100 % of control

Q: With `COc1cc(NC(=O)c2ccc(NC(=O)c3ccc(N)cc3)cc2)c(OC)cc1N=Nc1ccc(N=Nc2ccc3cc(S(=O)(=O)O)cc(S(=O)(=O)O)c3c2)c(C)c1` as the molecule, how does the T/C [5] read?
A: 106 % of control (2×) and 111 % of control

Q: What about the T/C [6] of the same molecule?
A: 106 % of control and 109 % of control and 115 % of control

Q: What about the T/C [7] of the same molecule?
A: 114 % of control and 115 % of control and 123 % of control

Q: What about the T/C (dose: 400.0 mg/kg/injection, schedule: Q01DX005 (ip), vehicle: saline) of the same molecule?
A: 116 % of control and 117 % of control

Q: Which T/C (dose: 100.0 mg/kg/injection, schedule: Q04DX003 (ip), vehicle: Klucel (hydroxypropylcellulose) (HPC)) does the source give for `Cc1n[nH]c(=O)[nH]c1=O` here?
A: 100 % of control

Q: What about the T/C (dose: 200.0 mg/kg/injection, schedule: Q04DX003 (ip), vehicle: Klucel (hydroxypropylcellulose) (HPC)) of the same molecule?
A: 100 % of control

Q: What about the T/C (dose: 400.0 mg/kg/injection, schedule: Q04DX003 (ip), vehicle: Klucel (hydroxypropylcellulose) (HPC)) of the same molecule?
A: 90 % of control

Q: `S=P1(c2ccccc2)C=C(N2CCCC2)CC1` (stereo unspecified) was tested. Which T/C (dose: 12.5 mg/kg/injection, schedule: Q01DX009 (ip), vehicle: saline) did it give?
A: 109 % of control

Q: And the T/C (dose: 25.0 mg/kg/injection, schedule: Q01DX009 (ip), vehicle: saline)?
A: 110 % of control

Q: And the T/C [12]?
A: 112 % of control

Q: What about the T/C (dose: 100.0 mg/kg/injection, schedule: Q01DX009 (ip), vehicle: saline) of the same molecule?
A: 104 % of control

Q: What about the T/C (dose: 200.0 mg/kg/injection, schedule: Q01DX009 (ip), vehicle: saline) of the same molecule?
A: 96 % of control

Q: For `COc1ccc(N=NNc2ccc(OC)cc2)cc1`, which T/C (dose: 6.25 mg/kg/injection, schedule: Q01DX009 (ip), vehicle: saline with Tween-80) is on record?
A: 104 % of control

Q: What about the T/C (dose: 6.25 mg/kg/injection, schedule: Q04DX003 (ip), vehicle: saline with Tween-80) of the same molecule?
A: 95 % of control

Q: What about the T/C [8] of the same molecule?
A: 104 % of control

Q: And the T/C (dose: 12.5 mg/kg/injection, schedule: Q04DX003 (ip), vehicle: saline with Tween-80)?
A: 108 % of control

Q: What about the T/C (dose: 25.0 mg/kg/injection, schedule: Q04DX003 (ip), vehicle: saline with Tween-80) of the same molecule?
A: 116 % of control

Q: Which results are given for `c1ccc(P2CCc3[nH]c4ccccc4c3C2)cc1` (stereo unspecified)?
A: T/C (dose: 50.0 mg/kg/injection, schedule: Q04DX003 (ip), vehicle: saline with Tween-80): 101 % of control; T/C (dose: 100.0 mg/kg/injection, schedule: Q04DX003 (ip), vehicle: saline with Tween-80): 105 % of control and 110 % of control; T/C (dose: 200.0 mg/kg/injection, schedule: Q04DX003 (ip), vehicle: saline with Tween-80): 103 % of control and 120 % of control; T/C (dose: 400.0 mg/kg/injection, schedule: Q04DX003 (ip), vehicle: saline with Tween-80): 114 % of control

Q: Which results are given for `CN(C)CCCN1c2ccccc2C2CC2c2ccccc21` (stereo unspecified)?
A: T/C (dose: 5.0 mg/kg/injection, schedule: Q01DX009 (ip), vehicle: saline with Tween-80): 100 % of control; T/C [4]: 98 % of control

Q: What does the source list for `CNc1n[nH]c(-c2ccccc2)n1`?
A: T/C [9]: 101 % of control; T/C [10]: 102 % of control; T/C [11]: 102 % of control
